Measured values published in ChEMBL document CHEMBL1152560, “Substituted 2-arylbenzothiazoles as kinase inhibitors: hit-to-lead optimization” (Bioorg Med Chem, 2009).

Experiments:
[1] = molecular target: Ephrin type-A receptor 7 (Homo sapiens) (UniProt Q15375); test: Residual activity of EPHA7 at 10 uM by microplate scintillation counting
[2] = molecular target: MAP/microtubule affinity-regulating kinase 3 (Homo sapiens) (UniProt P27448); test: Residual activity of MARK3 at 0.1 uM by microplate scintillation counting
[3] = molecular target: Tyrosine-protein kinase ABL2 (Homo sapiens) (UniProt P42684); test: Residual activity of ABL2 at 0.1 uM by microplate scintillation counting
[4] = molecular target: T1, Protein kinase C zeta type (Homo sapiens) (UniProt Q05513); test: Residual activity of PKCzeta at 1 uM by microplate scintillation counting
T1 sequence (whole entry): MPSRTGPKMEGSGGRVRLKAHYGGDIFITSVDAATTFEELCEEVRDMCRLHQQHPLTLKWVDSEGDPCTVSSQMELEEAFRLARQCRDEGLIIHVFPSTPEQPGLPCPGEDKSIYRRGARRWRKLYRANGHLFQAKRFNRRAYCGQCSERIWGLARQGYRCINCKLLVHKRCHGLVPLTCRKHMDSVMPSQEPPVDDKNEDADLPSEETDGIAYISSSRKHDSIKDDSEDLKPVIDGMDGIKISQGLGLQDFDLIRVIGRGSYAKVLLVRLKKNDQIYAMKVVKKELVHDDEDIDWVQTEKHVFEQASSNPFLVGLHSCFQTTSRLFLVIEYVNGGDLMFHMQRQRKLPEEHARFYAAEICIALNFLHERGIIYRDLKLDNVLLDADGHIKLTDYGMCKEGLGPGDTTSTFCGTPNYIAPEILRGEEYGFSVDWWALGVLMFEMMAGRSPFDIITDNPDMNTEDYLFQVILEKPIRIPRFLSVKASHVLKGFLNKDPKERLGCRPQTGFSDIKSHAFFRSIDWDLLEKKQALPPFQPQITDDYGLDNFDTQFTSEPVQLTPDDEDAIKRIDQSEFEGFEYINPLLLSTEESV

[5] = molecular target: Vascular endothelial growth factor receptor 1 (Homo sapiens) (UniProt P17948); test: Residual activity of VEGFR1 at 10 uM by microplate scintillation counting
[6] = molecular target: T2, Serine/threonine-protein kinase BRSK1 (Homo sapiens) (UniProt Q8TDC3); test: Residual activity of BRSK1 at 0.1 uM by microplate scintillation counting
T2 sequence (whole entry): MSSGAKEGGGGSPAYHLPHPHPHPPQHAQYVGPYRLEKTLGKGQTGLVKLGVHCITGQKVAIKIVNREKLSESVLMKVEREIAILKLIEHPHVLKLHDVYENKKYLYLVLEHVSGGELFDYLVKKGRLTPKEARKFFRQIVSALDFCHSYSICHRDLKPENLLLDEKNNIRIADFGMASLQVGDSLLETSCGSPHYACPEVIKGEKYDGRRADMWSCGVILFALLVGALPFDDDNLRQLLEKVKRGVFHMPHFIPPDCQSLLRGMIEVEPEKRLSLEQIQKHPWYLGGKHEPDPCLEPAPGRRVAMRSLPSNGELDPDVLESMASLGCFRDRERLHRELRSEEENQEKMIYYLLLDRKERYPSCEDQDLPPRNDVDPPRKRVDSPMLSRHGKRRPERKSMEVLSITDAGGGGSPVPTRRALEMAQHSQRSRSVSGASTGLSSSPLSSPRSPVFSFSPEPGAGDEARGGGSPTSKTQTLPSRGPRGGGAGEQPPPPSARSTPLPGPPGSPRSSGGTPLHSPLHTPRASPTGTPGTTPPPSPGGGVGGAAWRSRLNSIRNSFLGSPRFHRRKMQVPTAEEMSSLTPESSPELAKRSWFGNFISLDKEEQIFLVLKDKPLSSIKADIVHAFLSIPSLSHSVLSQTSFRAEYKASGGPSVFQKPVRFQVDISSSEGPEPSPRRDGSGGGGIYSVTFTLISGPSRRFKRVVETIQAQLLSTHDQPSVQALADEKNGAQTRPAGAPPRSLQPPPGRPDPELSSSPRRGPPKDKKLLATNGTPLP

[7] = molecular target: Serine/threonine-protein kinase MARK1 (Homo sapiens) (UniProt Q9P0L2); test: Residual activity of MARK1 at 10 uM by microplate scintillation counting
[8] = molecular target: Serine/threonine-protein kinase Nek6 (Homo sapiens) (UniProt Q9HC98); test: Residual activity of NEK6 at 10 uM by microplate scintillation counting
[9] = molecular target: Serine/threonine-protein kinase WNK2 (Homo sapiens) (UniProt Q9Y3S1); test: Residual activity of WNK2 at 1 uM by microplate scintillation counting
[10] = molecular target: Maternal embryonic leucine zipper kinase (Homo sapiens) (UniProt Q14680); test: Residual activity of MELK at 1 uM by microplate scintillation counting
[11] = molecular target: Tyrosine-protein kinase HCK (Homo sapiens) (UniProt P08631); test: Residual activity of HCK at 1 uM by microplate scintillation counting
[12] = molecular target: MAP kinase-activated protein kinase 3 (Homo sapiens) (UniProt Q16644); test: Residual activity of MAPKAPK3 at 1 uM by microplate scintillation counting
[13] = system: Fibroblast growth factor receptor 1 (Homo sapiens), P11362 [V561M]; test: Residual activity of FGFR1 V561M mutant at 0.1 uM by microplate scintillation counting
[14] = molecular target: Protein kinase C gamma type (Homo sapiens) (UniProt P05129); test: Residual activity of PKCgamma at 0.1 uM by microplate scintillation counting
[15] = molecular target: Cyclin-dependent kinase 2/cyclin E1 (Homo sapiens) (UniProt P24864+P24941); test: Residual activity of CDK2/Cyclin E at 0.1uM by microplate scintillation counting; assay type: protein-complex assay
[16] = system: Serine/threonine-protein kinase B-raf (Homo sapiens), P15056 [V600E]; test: Residual activity of B-RAF V600E mutant at 1 uM by microplate scintillation counting
[17] = molecular target: Protein kinase C beta type (Homo sapiens) (UniProt P05771); test: Residual activity of PKCbeta2 at 10 uM by microplate scintillation counting
[18] = molecular target: Tyrosine-protein kinase JAK2 (Homo sapiens) (UniProt O60674); test: Residual activity of JAK2 at 1 uM by microplate scintillation counting
[19] = molecular target: Serine/threonine-protein kinase 26 (Homo sapiens) (UniProt Q9P289); test: Residual activity of MST4 at 1 uM by microplate scintillation counting
[20] = molecular target: Mitogen-activated protein kinase 11 (Homo sapiens) (UniProt Q15759); test: Residual activity of p38beta at 0.1 uM by microplate scintillation counting
[21] = molecular target: Rho-associated protein kinase 1 (Homo sapiens) (UniProt Q13464); test: Residual activity of ROCK1 at 10 uM by microplate scintillation counting

Sequence of Fibroblast growth factor receptor 1 (Homo sapiens), P11362 [V561M] (P11362 whole entry V561M): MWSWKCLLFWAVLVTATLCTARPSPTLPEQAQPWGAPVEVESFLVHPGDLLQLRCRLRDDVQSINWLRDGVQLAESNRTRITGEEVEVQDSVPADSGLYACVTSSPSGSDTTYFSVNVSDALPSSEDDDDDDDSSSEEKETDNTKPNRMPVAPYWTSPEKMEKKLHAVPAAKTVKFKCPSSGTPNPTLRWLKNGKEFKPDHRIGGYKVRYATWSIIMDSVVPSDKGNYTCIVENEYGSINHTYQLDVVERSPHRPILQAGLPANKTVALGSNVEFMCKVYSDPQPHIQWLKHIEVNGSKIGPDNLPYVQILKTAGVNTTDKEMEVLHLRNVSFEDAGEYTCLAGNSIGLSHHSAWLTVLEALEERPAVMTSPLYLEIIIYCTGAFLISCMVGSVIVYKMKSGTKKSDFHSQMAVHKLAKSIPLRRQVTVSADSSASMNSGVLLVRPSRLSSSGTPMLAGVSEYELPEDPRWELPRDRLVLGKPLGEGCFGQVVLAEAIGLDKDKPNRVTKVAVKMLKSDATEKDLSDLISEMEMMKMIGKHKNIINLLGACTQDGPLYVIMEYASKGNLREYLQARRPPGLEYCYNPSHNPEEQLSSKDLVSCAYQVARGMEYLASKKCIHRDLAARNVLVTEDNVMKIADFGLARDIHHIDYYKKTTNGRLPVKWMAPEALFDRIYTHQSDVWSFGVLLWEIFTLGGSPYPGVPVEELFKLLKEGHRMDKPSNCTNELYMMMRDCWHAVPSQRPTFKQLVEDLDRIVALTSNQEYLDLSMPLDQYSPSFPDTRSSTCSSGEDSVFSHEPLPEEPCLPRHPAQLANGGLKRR
Sequence of Maternal embryonic leucine zipper kinase (Homo sapiens) (Q14680 whole entry, looked up): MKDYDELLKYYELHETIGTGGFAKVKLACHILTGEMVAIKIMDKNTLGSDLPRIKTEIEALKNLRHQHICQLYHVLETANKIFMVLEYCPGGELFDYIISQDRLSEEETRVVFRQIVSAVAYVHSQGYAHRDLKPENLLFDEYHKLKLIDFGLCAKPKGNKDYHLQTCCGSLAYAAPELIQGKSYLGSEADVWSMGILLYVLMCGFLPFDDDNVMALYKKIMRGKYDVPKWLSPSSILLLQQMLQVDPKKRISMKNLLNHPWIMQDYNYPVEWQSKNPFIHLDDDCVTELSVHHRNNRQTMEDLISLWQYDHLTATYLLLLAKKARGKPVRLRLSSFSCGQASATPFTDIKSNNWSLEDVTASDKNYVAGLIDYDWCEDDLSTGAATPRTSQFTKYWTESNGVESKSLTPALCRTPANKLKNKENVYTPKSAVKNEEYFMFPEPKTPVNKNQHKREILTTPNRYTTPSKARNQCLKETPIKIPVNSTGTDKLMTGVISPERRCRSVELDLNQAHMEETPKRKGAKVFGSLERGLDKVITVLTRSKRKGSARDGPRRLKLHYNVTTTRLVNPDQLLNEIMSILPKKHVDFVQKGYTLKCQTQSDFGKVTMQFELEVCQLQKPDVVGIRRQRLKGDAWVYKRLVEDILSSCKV
Sequence of MAP/microtubule affinity-regulating kinase 3 (Homo sapiens) (P27448 whole entry, looked up): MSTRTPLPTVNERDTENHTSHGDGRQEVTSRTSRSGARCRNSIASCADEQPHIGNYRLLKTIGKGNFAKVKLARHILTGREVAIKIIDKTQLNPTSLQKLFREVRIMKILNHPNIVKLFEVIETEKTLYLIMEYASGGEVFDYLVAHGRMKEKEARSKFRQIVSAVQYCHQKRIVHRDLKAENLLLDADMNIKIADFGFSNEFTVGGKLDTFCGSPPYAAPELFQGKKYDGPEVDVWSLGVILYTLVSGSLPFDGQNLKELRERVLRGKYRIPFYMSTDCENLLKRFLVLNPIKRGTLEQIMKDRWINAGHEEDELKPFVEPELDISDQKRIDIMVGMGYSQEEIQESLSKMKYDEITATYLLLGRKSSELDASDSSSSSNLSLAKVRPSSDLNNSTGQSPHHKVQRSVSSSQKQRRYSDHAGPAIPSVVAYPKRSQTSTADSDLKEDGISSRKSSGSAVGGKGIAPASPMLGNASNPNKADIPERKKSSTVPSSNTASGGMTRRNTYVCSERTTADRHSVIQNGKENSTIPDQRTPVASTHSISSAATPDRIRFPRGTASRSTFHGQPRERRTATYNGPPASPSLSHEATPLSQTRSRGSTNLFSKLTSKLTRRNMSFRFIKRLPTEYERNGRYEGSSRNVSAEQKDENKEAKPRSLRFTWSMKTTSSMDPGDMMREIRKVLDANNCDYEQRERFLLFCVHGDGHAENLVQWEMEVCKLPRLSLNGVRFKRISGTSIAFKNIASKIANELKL
Sequence of Protein kinase C beta type (Homo sapiens) (P05771 2-671 limits assumed): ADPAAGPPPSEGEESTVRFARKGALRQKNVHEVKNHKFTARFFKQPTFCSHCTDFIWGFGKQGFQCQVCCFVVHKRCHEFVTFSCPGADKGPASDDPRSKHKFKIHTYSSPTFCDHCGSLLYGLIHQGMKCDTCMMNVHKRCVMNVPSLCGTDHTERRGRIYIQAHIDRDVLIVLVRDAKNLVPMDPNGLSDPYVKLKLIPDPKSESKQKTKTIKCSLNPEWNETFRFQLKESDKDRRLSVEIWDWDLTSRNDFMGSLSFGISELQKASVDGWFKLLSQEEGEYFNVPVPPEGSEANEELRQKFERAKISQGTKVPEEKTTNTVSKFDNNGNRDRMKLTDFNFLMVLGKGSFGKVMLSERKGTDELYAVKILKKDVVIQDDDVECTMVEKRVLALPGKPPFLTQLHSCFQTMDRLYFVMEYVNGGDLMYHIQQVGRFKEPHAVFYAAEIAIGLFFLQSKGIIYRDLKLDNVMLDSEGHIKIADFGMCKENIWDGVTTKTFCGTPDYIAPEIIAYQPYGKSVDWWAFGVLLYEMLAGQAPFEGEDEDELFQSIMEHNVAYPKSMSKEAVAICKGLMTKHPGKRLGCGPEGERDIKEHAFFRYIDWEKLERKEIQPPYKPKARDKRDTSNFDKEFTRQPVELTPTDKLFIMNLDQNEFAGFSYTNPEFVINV
Sequence of Vascular endothelial growth factor receptor 1 (Homo sapiens) (P17948 whole entry): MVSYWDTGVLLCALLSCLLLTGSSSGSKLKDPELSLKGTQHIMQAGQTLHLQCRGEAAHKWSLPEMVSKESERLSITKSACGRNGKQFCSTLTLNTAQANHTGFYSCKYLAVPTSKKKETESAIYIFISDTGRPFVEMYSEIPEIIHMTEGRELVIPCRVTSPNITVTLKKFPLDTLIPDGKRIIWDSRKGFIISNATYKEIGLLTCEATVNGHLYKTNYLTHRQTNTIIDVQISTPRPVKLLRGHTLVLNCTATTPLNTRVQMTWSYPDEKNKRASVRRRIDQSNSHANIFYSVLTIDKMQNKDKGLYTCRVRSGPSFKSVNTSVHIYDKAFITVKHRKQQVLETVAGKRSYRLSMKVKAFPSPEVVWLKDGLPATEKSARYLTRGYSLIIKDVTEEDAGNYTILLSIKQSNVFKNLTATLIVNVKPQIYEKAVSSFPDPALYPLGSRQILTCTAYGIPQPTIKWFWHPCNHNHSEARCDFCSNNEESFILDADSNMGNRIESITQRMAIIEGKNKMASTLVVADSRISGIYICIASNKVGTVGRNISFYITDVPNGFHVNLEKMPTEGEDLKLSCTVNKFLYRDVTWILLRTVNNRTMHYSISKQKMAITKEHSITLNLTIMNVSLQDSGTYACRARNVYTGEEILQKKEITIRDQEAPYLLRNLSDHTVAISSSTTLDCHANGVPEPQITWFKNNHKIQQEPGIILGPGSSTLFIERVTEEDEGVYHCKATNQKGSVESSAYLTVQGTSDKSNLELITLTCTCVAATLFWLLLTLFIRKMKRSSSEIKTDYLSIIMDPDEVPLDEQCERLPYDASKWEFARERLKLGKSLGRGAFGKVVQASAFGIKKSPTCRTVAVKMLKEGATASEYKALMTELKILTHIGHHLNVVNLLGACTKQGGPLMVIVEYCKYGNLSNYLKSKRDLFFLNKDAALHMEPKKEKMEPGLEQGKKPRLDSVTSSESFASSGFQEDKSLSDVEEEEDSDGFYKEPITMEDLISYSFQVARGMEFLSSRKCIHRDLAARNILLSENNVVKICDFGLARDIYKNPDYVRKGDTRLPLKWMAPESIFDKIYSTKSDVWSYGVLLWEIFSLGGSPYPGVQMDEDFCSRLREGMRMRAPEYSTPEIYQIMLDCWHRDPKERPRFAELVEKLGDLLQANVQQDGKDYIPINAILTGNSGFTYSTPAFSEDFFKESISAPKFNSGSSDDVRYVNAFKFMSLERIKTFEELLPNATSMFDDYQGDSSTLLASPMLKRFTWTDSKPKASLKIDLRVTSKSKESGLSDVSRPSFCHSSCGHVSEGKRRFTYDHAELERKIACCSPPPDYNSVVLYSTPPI
Sequence of Serine/threonine-protein kinase B-raf (Homo sapiens), P15056 [V600E] (P15056 whole entry V600E): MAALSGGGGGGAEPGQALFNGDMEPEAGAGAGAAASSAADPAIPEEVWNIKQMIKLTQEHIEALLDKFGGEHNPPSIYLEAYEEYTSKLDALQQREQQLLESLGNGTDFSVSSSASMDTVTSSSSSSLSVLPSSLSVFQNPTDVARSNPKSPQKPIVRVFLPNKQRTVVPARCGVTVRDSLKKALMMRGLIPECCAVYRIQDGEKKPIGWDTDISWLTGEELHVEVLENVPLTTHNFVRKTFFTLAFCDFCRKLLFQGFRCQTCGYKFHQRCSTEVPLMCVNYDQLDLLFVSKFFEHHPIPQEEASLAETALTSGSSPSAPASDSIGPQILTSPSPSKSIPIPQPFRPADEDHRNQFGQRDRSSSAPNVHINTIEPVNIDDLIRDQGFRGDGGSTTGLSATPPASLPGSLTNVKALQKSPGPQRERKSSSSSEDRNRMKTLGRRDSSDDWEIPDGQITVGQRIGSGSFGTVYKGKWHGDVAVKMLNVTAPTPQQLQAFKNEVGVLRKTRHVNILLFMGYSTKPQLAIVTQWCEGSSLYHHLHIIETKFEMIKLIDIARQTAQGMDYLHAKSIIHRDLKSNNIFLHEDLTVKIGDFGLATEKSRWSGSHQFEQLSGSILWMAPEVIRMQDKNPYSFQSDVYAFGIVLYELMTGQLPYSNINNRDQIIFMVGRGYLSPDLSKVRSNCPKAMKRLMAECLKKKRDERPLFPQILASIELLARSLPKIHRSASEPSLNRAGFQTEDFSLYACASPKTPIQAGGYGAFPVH

Compound	residual activity [1] [%]	residual activity [2] [%]	residual activity [3] [%]	residual activity [4] [%]	residual activity [5] [%]	residual activity [6] [%]	residual activity [7] [%]	residual activity [8] [%]	residual activity [9] [%]	residual activity [10] [%]	residual activity [11] [%]	residual activity [12] [%]	residual activity [13] [%]	residual activity [14] [%]	residual activity [15] [%]	residual activity [16] [%]	residual activity [17] [%]	residual activity [18] [%]	residual activity [19] [%]	residual activity [20] [%]	further results
COc1cc2c(Oc3ccc(-c4nc5ccccc5s4)cc3F)ncnc2cc1OCCCN1CCN(C)CC1	49	87	96	107	14	85	112	101	53	68	99	98	93	101	92	79	53	97	109	105	residual activity [21]: 73%
COc1cc2c(Oc3ccc(-c4nc5ccccc5s4)cc3)ncnc2cc1OCCCN1CCCC1	108	84	116	109	28	94	112	94	34	78	116	94	108	99	93	83	69	95	98	104	residual activity [21]: 81%
COc1cc2c(Oc3ccc(-c4nc5ccccc5s4)cc3)ncnc2cc1OCCCN1CCN(C)CC1	116	92	100	92	35	95	124	96	25	106	93	85	109	120	86	86	77	96	109	90	residual activity [21]: 68%
